In ChEMBL document CHEMBL3856280, “Targeting the HSP60/10 chaperonin systems of Trypanosoma brucei as a strategy for treating African sleeping sickness” (Bioorg Med Chem Lett, 2016):

Tests used:
[1] = system: Trypanosoma brucei brucei; test: Antitrypanosomal activity against Trypanosoma brucei brucei Lister 427 VSG 221 [TetR T7RNAP] transgenic bloodstream forms assessed as reduction in cell viability after 48 hrs by alamar blue assay; type: functional; conditions: Lister 427 VSG 221, 48 h
E. coli GroEL/ES [2] = molecular target: T1, E. coli GroEL/ES (Escherichia coli, UniProt P0A6F5); test: Inhibition of Escherichia coli GroEL/GroES-ATPase activity expressed in Escherichia coli DH5alpha/BL21 (DE3) assessed as inhibition of denatured MDH refolding preincubated for 10 mins followed by ATP addition measured after 20 to 40 mins by malachite green dye based fluorescence assay
T1 sequence (P0A6F5 whole entry, looked up): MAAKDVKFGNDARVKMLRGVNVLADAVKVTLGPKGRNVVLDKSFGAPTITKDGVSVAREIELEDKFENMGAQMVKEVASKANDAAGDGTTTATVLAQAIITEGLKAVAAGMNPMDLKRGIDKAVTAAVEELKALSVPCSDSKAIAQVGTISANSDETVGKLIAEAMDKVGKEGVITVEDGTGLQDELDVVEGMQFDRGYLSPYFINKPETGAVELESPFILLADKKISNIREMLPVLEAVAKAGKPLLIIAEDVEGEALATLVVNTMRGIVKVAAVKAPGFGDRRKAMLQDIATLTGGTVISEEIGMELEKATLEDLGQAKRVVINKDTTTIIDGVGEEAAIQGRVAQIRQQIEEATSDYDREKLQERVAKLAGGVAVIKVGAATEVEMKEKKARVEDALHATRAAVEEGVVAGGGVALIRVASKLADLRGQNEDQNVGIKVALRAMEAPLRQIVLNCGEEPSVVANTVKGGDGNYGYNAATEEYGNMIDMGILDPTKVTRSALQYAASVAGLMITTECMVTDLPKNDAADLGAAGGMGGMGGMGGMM

E. coli GroEL/ES [3] = molecular target: T1, E. coli GroEL/ES; test: Inhibition of Escherichia coli GroEL/GroES expressed in Escherichia coli DH5alpha/BL21 (DE3) assessed as inhibition of denatured MDH refolding preincubated for 10 mins followed by ATP addition measured after 20 to 40 mins by fluorescence based assay
HSP60/HSP10 [4] = molecular target: T2, HSP60/HSP10 (Homo sapiens, UniProt P10809); test: Inhibition of human mitochondrial HSP60/HSP10-ATPase activity expressed in Escherichia coli DH5alpha/BL21 (DE3) assessed as inhibition of denatured MDH refolding preincubated for 10 mins followed by ATP addition measured after 40 to 60 mins by malachite green dye based fluorescence assay
T2 sequence (P10809 whole entry): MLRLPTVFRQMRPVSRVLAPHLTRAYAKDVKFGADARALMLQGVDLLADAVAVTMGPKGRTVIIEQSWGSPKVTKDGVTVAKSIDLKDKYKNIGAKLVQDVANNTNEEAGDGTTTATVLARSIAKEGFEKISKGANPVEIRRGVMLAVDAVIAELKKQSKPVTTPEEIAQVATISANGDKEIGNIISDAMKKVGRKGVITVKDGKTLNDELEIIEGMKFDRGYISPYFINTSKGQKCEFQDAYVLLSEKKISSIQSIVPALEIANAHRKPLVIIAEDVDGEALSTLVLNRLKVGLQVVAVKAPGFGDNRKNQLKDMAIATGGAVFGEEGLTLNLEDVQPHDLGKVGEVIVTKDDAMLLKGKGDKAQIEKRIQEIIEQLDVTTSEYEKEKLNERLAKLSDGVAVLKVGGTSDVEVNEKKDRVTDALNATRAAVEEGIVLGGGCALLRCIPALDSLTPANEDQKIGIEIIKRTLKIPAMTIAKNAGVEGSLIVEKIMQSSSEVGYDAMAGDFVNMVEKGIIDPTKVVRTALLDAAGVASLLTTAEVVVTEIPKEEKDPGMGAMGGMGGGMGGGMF
T2 sequence (P61604 whole entry, further chain): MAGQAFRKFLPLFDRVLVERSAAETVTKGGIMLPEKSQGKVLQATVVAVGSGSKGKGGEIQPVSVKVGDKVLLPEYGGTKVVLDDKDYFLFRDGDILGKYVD

[5] = Cytotoxicity against human THLE3 cells assessed as reduction in cell viability after 48 hrs by alamar blue assay; type: toxicity, cell-based
[6] = Cytotoxicity against HEK293 cells assessed as reduction in cell viability after 48 hrs by alamar blue assay; type: toxicity, cell-based; conditions: human
HSP60/HSP10 [7] = molecular target: T2, HSP60/HSP10; test: Inhibition of human mitochondrial HSP60/HSP10 expressed in Escherichia coli DH5alpha/BL21 (DE3) assessed as inhibition of denatured MDH refolding preincubated for 10 mins followed by ATP addition measured after 40 to 60 mins by fluorescence based assay
[8] = Inhibition of pig heart native MDH reporter reaction after 20 to 40 mins by fluorescence based assay; design: species or system Sus scrofa

Structure (SMILES) | EC50 [1] | IC50 (E. coli GroEL/ES [2]) | IC50 (E. coli GroEL/ES [3]) | IC50 (HSP60/HSP10 [4]) | EC50 at 48 h [5] | EC50 at 48 h [6] | IC50 (HSP60/HSP10 [7]) | IC50 [8]
Cc1cccc(S(=O)(=O)Nc2ccc(-c3nc4cc(NS(=O)(=O)c5cccc(C)c5)ccc4o3)cc2)c1 | 4.9 µM | > 250 µM | 35 µM | > 250 µM | 18 µM | 65 µM | > 100 µM | > 63 µM
O=S(=O)(Nc1ccc(-c2nc3cc(NS(=O)(=O)c4cccc(F)c4)ccc3o2)cc1)c1cccc(F)c1 | 10 µM | 5.1 µM | 5.3 µM | > 250 µM | 20 µM | 24 µM | 68 µM | > 63 µM
O=S(=O)(Nc1ccc(-c2nc3cc(NS(=O)(=O)c4ccccc4C(F)(F)F)ccc3o2)cc1)c1ccccc1C(F)(F)F | 28 µM | 21 µM | 25 µM | > 250 µM | 50 µM | 66 µM | > 100 µM | > 63 µM
O=S(=O)(Nc1ccc(-c2nc3cc(NS(=O)(=O)c4cccc(Cl)c4)ccc3o2)cc1)c1cccc(Cl)c1 | 4.5 µM | > 250 µM | 18 µM | > 250 µM | 17 µM | 21 µM | > 100 µM | > 63 µM
N#Cc1ccc(S(=O)(=O)Nc2ccc(-c3nc4cc(NS(=O)(=O)c5ccc(C#N)cc5)ccc4o3)cc2)cc1 | 16 µM | > 250 µM | 37 µM | > 250 µM | 79 µM | 45 µM | 64 µM | > 63 µM
O=S(=O)(Nc1ccc(-c2nc3cc(NS(=O)(=O)c4ccc(C(F)(F)F)cc4)ccc3o2)cc1)c1ccc(C(F)(F)F)cc1 | 4.1 µM | > 250 µM | 35 µM | > 250 µM | 21 µM | > 100 µM | 61 µM | > 63 µM
O=S(=O)(Nc1ccc(-c2nc3cc(NS(=O)(=O)c4ccc(F)cc4)ccc3o2)cc1)c1ccc(F)cc1 | 4.3 µM | 4.3 µM | 3.8 µM | > 250 µM | 19 µM | 21 µM | > 100 µM | > 63 µM
N#Cc1ccccc1S(=O)(=O)Nc1ccc(-c2nc3cc(NS(=O)(=O)c4ccccc4C#N)ccc3o2)cc1 | 23 µM | > 250 µM | 32 µM | 193 µM | 93 µM | 74 µM | 86 µM | > 63 µM
COc1cccc(S(=O)(=O)Nc2ccc(-c3nc4cc(NS(=O)(=O)c5cccc(OC)c5)ccc4o3)cc2)c1 | 5.1 µM | > 250 µM | 48 µM | > 250 µM | 15 µM | 28 µM | > 100 µM | > 63 µM
O=S(=O)(Nc1ccc(-c2nc3cc(NS(=O)(=O)c4ccccc4F)ccc3o2)cc1)c1ccccc1F | 19 µM | > 250 µM | 22 µM | > 250 µM | 55 µM | 31 µM | 77 µM | > 63 µM
O=[N+]([O-])c1cccc(S(=O)(=O)Nc2ccc(-c3nc4cc(NS(=O)(=O)c5cccc([N+](=O)[O-])c5)ccc4o3)cc2)c1 | 11 µM | > 250 µM | 11 µM | > 250 µM | 37 µM | 46 µM | 60 µM | > 63 µM
COC(=O)c1cccc(S(=O)(=O)Nc2ccc(-c3nc4cc(NS(=O)(=O)c5cccc(C(=O)OC)c5)ccc4o3)cc2)c1 | > 42 µM | > 250 µM | 11 µM | > 250 µM | 49 µM | > 100 µM | 95 µM | > 63 µM
N#Cc1cccc(S(=O)(=O)Nc2ccc(-c3nc4cc(NS(=O)(=O)c5cccc(C#N)c5)ccc4o3)cc2)c1 | 39 µM | 4.1 µM | 7.6 µM | > 250 µM | 91 µM | 45 µM | 91 µM | > 63 µM
O=S(=O)(Nc1ccc(-c2nc3cc(NS(=O)(=O)c4cccc(O)c4)ccc3o2)cc1)c1cccc(O)c1 | 8.9 µM | 0.79 µM | 0.9 µM | 61 µM | 37 µM | 36 µM | 19 µM | 47 µM
O=S(=O)(Nc1ccc(-c2nc3cc(NS(=O)(=O)c4cccc(Br)c4)ccc3o2)cc1)c1cccc(Br)c1 | 8 µM | 45 µM | 23 µM | > 250 µM | 21 µM | 25 µM | > 100 µM | > 63 µM
Nc1ccc(S(=O)(=O)Nc2ccc(-c3nc4cc(NS(=O)(=O)c5ccc(N)cc5)ccc4o3)cc2)cc1 | 22 µM | 1.7 µM | 1.4 µM | 224 µM | 38 µM | 59 µM | 68 µM | > 63 µM
COc1ccc(S(=O)(=O)Nc2ccc(-c3nc4cc(NS(=O)(=O)c5ccc(OC)cc5)ccc4o3)cc2)cc1 | 3.3 µM | 84 µM | 36 µM | > 250 µM | > 100 µM | 88 µM | > 100 µM | > 63 µM
Cc1ccccc1S(=O)(=O)Nc1ccc(-c2nc3cc(NS(=O)(=O)c4ccccc4C)ccc3o2)cc1 | 1.8 µM | 194 µM | > 100 µM | > 250 µM | 17 µM | 25 µM | > 100 µM | > 63 µM
Nc1ccccc1S(=O)(=O)Nc1ccc(-c2nc3cc(NS(=O)(=O)c4ccccc4N)ccc3o2)cc1 | 3.3 µM | > 250 µM | 10 µM | > 250 µM | 18 µM | 14 µM | > 100 µM | > 63 µM
O=[N+]([O-])c1ccc(S(=O)(=O)Nc2ccc(-c3nc4cc(NS(=O)(=O)c5ccc([N+](=O)[O-])cc5)ccc4o3)cc2)cc1 | 15 µM | > 250 µM | 26 µM | > 250 µM | 36 µM | 59 µM | 65 µM | > 63 µM
Nc1cccc(S(=O)(=O)Nc2ccc(-c3nc4cc(NS(=O)(=O)c5cccc(N)c5)ccc4o3)cc2)c1 | 15 µM | 9.6 µM | 2.8 µM | 127 µM | 30 µM | 58 µM | 87 µM | > 63 µM
O=[N+]([O-])c1ccccc1S(=O)(=O)Nc1ccc(-c2nc3cc(NS(=O)(=O)c4ccccc4[N+](=O)[O-])ccc3o2)cc1 | > 42 µM | 3.1 µM | 3.6 µM | 194 µM | 93 µM | 60 µM | 75 µM | > 63 µM
O=S(=O)(Nc1ccc(-c2nc3cc(NS(=O)(=O)c4cccc(C(F)(F)F)c4)ccc3o2)cc1)c1cccc(C(F)(F)F)c1 | 4.8 µM | 216 µM | 15 µM | > 250 µM | 19 µM | 15 µM | > 100 µM | > 63 µM
O=S(=O)(Nc1ccc(-c2nc3cc(NS(=O)(=O)c4ccc(Cl)cc4)ccc3o2)cc1)c1ccc(Cl)cc1 | 3.2 µM | 35 µM | 23 µM | > 250 µM | 18 µM | 13 µM | 96 µM | > 63 µM
COc1ccccc1S(=O)(=O)Nc1ccc(-c2nc3cc(NS(=O)(=O)c4ccccc4OC)ccc3o2)cc1 | 2.7 µM | > 250 µM | 69 µM | > 250 µM | > 100 µM | 79 µM | > 100 µM | > 63 µM
O=S(=O)(Nc1ccc(-c2nc3cc(NS(=O)(=O)c4ccc(Br)cc4)ccc3o2)cc1)c1ccc(Br)cc1 | 2.4 µM | 19 µM | 24 µM | > 250 µM | 16 µM | 22 µM | > 100 µM | > 63 µM
O=S(=O)(Nc1ccc(-c2nc3cc(NS(=O)(=O)c4ccccc4Br)ccc3o2)cc1)c1ccccc1Br | 28 µM | 144 µM | 63 µM | > 250 µM | 37 µM | 28 µM | > 100 µM | > 63 µM
O=S(=O)(Nc1ccc(-c2nc3cc(NS(=O)(=O)c4ccccc4Cl)ccc3o2)cc1)c1ccccc1Cl | 5.9 µM | 131 µM | 46 µM | > 250 µM | 24 µM | 75 µM | > 100 µM | > 63 µM
O=S(=O)(Nc1ccc(-c2nc3cc(NS(=O)(=O)c4ccc(O)cc4)ccc3o2)cc1)c1ccc(O)cc1 | 21 µM | 0.31 µM | 0.34 µM | 59 µM | 41 µM | 38 µM | 11 µM | 50 µM
